Experimental data reported in PubChem BioAssay AID179 (DTP/NCI, 2004).
Activity calls are given as the source filed them.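 The calls were made as follows: active = compounds giving half or more protection of infected cells from virus-caused growth loss, again on retest; inactive = the rest.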

Tested on: CEM cells HIV-1 protection, formazan growth assay
Assay: NCI AIDS Antiviral Assay
Details: for IC50: measured here: growth of uninfected CEM cells
How it was run: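 Human CEM cells, uninfected and HIV-1-infected, received five drug concentrations, and growth was read by soluble formazan assay. Compounds giving at least 50% protection were retested; reproducible 100% protection defined confirmed active.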

SMILES | EC50 [µM] | IC50 [µM] | outcome
C[C@H](CCC(=O)O[C@@H]1CC[C@@]2(C)C(CC[C@H]3[C@@H]4CC[C@H]([C@H](C)CCc5nc6ccccc6[nH]5)[C@@]4(C)CC[C@@H]32)C1)[C@H]1CC[C@H]2[C@@H]3CCC4C[C@H](O)CC[C@]4(C)[C@H]3CC[C@]12C (some centres undefined) | > 100 | > 100 | –
CC(=O)CC(=O)Nc1ccccc1[N+](=O)[O-] | – | – | inactive
NC(=O)c1nnsc1-c1ccco1 | > 200 | > 200 | –
Nc1c(-c2nc3ccccc3[nH]2)sc(=S)n1-c1ccc(Cl)cc1 | > 14.5 | > 14.5 | –
Cc1cc(O)c(/C=N/C(=O)NN)c(=O)o1 | > 200 | > 200 | –
O=C(Nc1ccc(Cl)cc1)OCC12COCN1COC2 | 204 | 257 | –
O=C(OCC(Cl)(Cl)Cl)O[C@@H]1CCCC1(c1ccccc1)c1ccccc1 | > 135 | 49 | –
O=c1cc(NNc2cccc(F)c2)[nH]c(=S)[nH]1 | > 200 | 87.1 | –
C(#CCN1CCCCCC1)CN1CCCCCC1 | 182 | > 200 | –
CC(C)c1ccc2nc3ccc(C(=O)NCCN(C)C)cn3c(=O)c2c1 | > 200 | 12.6 | –
CC(C)N(Cc1ccccc1)S(=O)(=O)c1n[nH]c(C(C)(C)C)n1 | > 200 | > 200 | –
O=[N+]([O-])c1ccc(NN=C2CN3CCN(C2)c2ccccc23)c([N+](=O)[O-])c1 | > 200 | 162 | –
CCOC(CN(C)C(=O)Nc1ccc(Cl)c(Cl)c1)OCC | > 200 | 14.8 | –
CCOC(=O)C1=C(NC(C)(C)C)OC/C1=N\NC(=O)Cc1ccccc1 | > 72.4 | > 72.4 | –
N#CC1(c2ccccc2)CCN(C2(c3ccccc3)CCCCC2)CC1 | > 200 | > 200 | –
NC1=NN(c2ccccc2)C(=O)C1C(=O)C(=O)Nc1ccc(Cl)c(Cl)c1 (centres undefined) | > 331 | 234 | –
COC(=O)C(C(=O)C(=O)Nc1ccc([N+](=O)[O-])cc1)c1nc2ccc([N+](=O)[O-])cc2[nH]c1=O (centres undefined) | > 57.5 | > 57.5 | –
CC1(C)O[C@@H]2[C@@H]3OC(=O)C[C@@H]3[C@@H](COCc3ccccc3)[C@@H]2O1 | > 200 | > 200 | –
O=C1OC2CCCC[C@@H]2C2C[C@]34CCCCC3[C@@H](C(=O)O4)C12 (some centres undefined) | > 23.4 | > 23.4 | –
COC1OC2COC(c3ccccc3)OC2C2OC(=S)OC12 (centres undefined) | – | – | inactive
CCOC(C)O[C@H]1C(=O)OCC1(C)C (some centres undefined) | 77.6 | > 200 | –
COc1cc2c(cc1OC)NCc1ccccc1NCc1cc(OC)c(OC)cc1NCc1ccccc1NC2 | > 200 | 107 | –

SMILES | EC50 [µM] | IC50 [µM] | outcome
CC1CCCCCC(=O)c2c(O)cc(O)cc2CC(=O)O1 (centres undefined) | > 851 | 117 | –
CC(C(O)c1ccccc1)N(C)/N=N/c1nc2c([nH]1)c(=O)n(C)c(=O)n2C (centres undefined) | > 200 | 110 | –
O=C(N/C(=C\c1ccc([N+](=O)[O-])cc1)c1nc2ccccc2[nH]1)c1ccccc1 | > 35.5 | > 35.5 | –
Cc1cc(Cl)ccc1NC(=O)CC1SC(=NC(=O)c2ccccc2Cl)NC1=O (centres undefined) | > 16.6 | > 16.6 | –
Cc1ccc2cc(-c3ccccc3)c3ccc(C)nc3c2n1.Cc1ccc2cc(-c3ccccc3)c3ccc(C)nc3c2n1.O=C1OC(C(O)C[O-])C(O)=C1O.[Cu+] | > 25.1 | 1.29 | –
CC1CC/C(=C\c2ccc(Cl)cc2)C(=O)/C1=C\c1ccc(Cl)cc1 (centres undefined) | > 200 | 42.7 | –
CC1(C)OC(=O)C(CC(=O)O)O1 (centres undefined) | – | – | inactive
CC1(C)OP(=O)(c2ccccc2)C=C1Br (centres undefined) | > 200 | > 200 | –
CN1Cc2ccccc2[C@H]2C(c3ccccc3)=NN(c3ccccc3)[C@H]21 | > 200 | > 200 | –
CC(=O)OCC1OC(OC2=C(c3ccccc3)C(=O)C(OC3OC(COC(C)=O)C(OC(C)=O)C(OC(C)=O)C3OC(C)=O)=C(c3ccccc3)C2=O)C(OC(C)=O)C(OC(C)=O)C1OC(C)=O (centres undefined) | > 33.9 | 5.89 | –
CCCCCCCCCCCCC(=O)N1CCOCC1 | > 200 | 52.5 | –
CCOC(=O)C(=O)Cc1cc(=O)n(C)c2ccccc12 | > 200 | 170 | –
CCN(CC)CCCCCCCNc1c2ccc(Cl)cc2nc2ccc(OC)cc12 | > 2 | 0.427 | –
CC1(C)C(C(=O)O)C1C(=O)O (centres undefined) | > 200 | > 200 | –
C#CCN(N=O)C(=O)NCCCC(NC(C)=O)C(=O)NCc1ccccc1 (centres undefined) | > 676 | 51.3 | –
COC(=O)NC(=O)c1cn(C2OC(CO)C(O)C2O)c(=O)[nH]c1=O (centres undefined) | > 724 | > 724 | –
CC1(C)CC(=O)C2C(C1)OC1CC(C)(C)CC(=O)C1C2c1ccc2c(c1)OCO2 (centres undefined) | > 200 | 155 | –
CC(=O)/C(=C\c1ccco1)C(=O)Nc1ccccc1 | > 74.1 | > 74.1 | –
Cc1cc(Cc2c(F)c(F)c(C(c3cc(C)no3)c3c(F)c(F)c(F)c(F)c3F)c(F)c2F)on1 (centres undefined) | > 200 | 3.39 | –
Oc1ccccc1SSc1ccccc1O | > 200 | 63.1 | –
Cc1ccc(C)c(C(=O)c2ccccc2)c1C(=O)O | > 200 | > 200 | –
N.N.N.N.N.N#Cc1nn[n-]n1.[Cl-].[Co+3] | > 813 | > 813 | –

SMILES | EC50 [µM] | IC50 [µM] | outcome
CN(/N=C(\C(=O)O)c1ccccc1)C1=NCCN1 | > 200 | > 200 | –
COc1cccc(CN2CCN(/N=C/c3c4c(O)c5c(O)c(C)c6c(c5c3O)C(=O)C(C)(O/C=C/C(OC)C(C)C(OC(C)=O)C(C)C(O)C(C)C(O)C(C)/C=C/C=C(C)C(=O)N4)O6)CC2)c1 (centres undefined) | > 200 | 6.61 | –
N#C/C(=C\c1ccc(O)c(O)c1)C(=O)NCCCNC(=O)/C(C#N)=C/c1ccc(O)c(O)c1 | > 200 | 66.1 | –
S=C(NCCSSCCNC(=S)Nc1ccccc1)Nc1ccccc1 | > 200 | 35.5 | –
O=c1[nH]c(=O)n(C2CC(O)C(CO)O2)cc1/C=C/Br (centres undefined) | > 759 | 741 | –
N#CC(C#N)=C(C(C#N)C#N)C(C#N)C#N | – | – | inactive
O=C(O)CN=c1c2ccccc2n(O)c2ccccc12 | – | – | inactive
CCCCN1C(=O)c2cccc3cccc(c23)C1=O | > 200 | 112 | –
CCCCCCCCCCCc1c2[nH]c3cc(C)ccc3oc2cc2[nH]c3cc(C)ccc3oc12 | > 2 | > 2 | –
CCOC(=O)Cn1c(=O)[nH]c(=O)c2[nH]cnc21 | > 1050 | > 1050 | –
O=C1c2ccccc2-c2nccc3c2c1nc1ccccc13 | > 200 | 8.32 | –
O=C(Nc1ccccn1)/C(=C\C(=O)c1ccc(Cl)cc1)Nc1ccccc1 | > 200 | 174 | –
C/C(=N\NC(=O)N/N=C(\C)c1ccccn1)c1ccccn1 | > 2 | 0.0339 | –
COCc1cc2c(cc1/C=C/[N+](=O)[O-])OCO2 | > 200 | 2.95 | –
CC1=C(C(=O)Nc2ccccc2)C2(CCCCC2)C(C#N)=C(SCC(=O)Nc2ccc(Br)cc2)N1 | > 200 | 12.3 | –
COc1cc(-c2oc3ccccc3c(=O)c2O)cc(OC)c1OC | > 200 | 79.4 | –
CC(C)COP(=O)(OCC(C)C)C(NS(=O)(=O)c1ccccc1)(C(F)(F)F)C(F)(F)F | – | – | inactive
N#Cc1c(-c2ccccc2)/c(=C\O)c(=O)n2c1nc1ccccc12 | > 200 | 32.4 | –
c1cncc(-c2nc3sc(-c4cccnc4)nc3s2)c1 | – | – | inactive
Cc1cccc2c1C(=O)[C@@](C)([C@]1(C)Nc3cccc(C)c3C1=O)N2 | > 200 | > 200 | –
Oc1ccc(-c2csc(NNC3=NC/C(=C/c4ccc5c(c4)OCO5)S3)n2)cc1O | > 200 | 64.6 | –
CCOC(=O)c1ccc(N=Nc2ccc(N(CCC#N)CCC#N)cc2C)cc1 | > 9.77 | > 9.77 | –

SMILES | EC50 [µM] | IC50 [µM] | outcome
CN(C)c1ccc(/C=C2\CCOC2=O)cc1 | > 17.4 | > 17.4 | –
O=c1[nH]c2ccc([N+](=O)[O-])cc2nc1/C(=N/Nc1ccccc1)C(O)c1ccco1 (centres undefined) | > 437 | 275 | –
C[C@@H]1C[C@H]2[C@@H]3CCC4=CC(=O)C=C[C@]4(C)[C@@]3(F)[C@@H](O)C[C@]2(C)[C@H]1O | – | – | inactive
Oc1cnc2c(O)cccc2c1 | > 200 | 17.8 | –
CN(C)/C(N)=N/C(N)=Nc1cccc(Cl)c1 | > 200 | 83.2 | –
Nc1ccc(C2SCC(=O)N2NS(=O)(=O)c2cccc(C(=O)O)c2)cc1 (centres undefined) | 36.3 | 132 | –
CC1(C)/C(=N\NC(N)=O)C2CCC1C2 (centres undefined) | > 200 | > 200 | –
COc1ccc(Cl)c2c1[nH]c1nc3nc4cc(Cl)ccc4n3nc12 | > 100 | > 100 | –
O=S1(=O)OC(c2ccc(O)c(Cl)c2)(c2ccc(O)c(Cl)c2)c2ccccc21 | – | – | inactive
Nc1ccn(C2CC(CO)C(CO)C2)c(=O)n1 (centres undefined) | > 209 | > 209 | –
CCN(CC)CCC(=O)c1ccc(Oc2ccc(F)cc2)cc1 | > 200 | 22.9 | –
CC(=O)NC1C(O)CC(O)(C(=O)O)OC1C(O)C(O)CO (centres undefined) | – | – | inactive
NC1=NCC(c2ccccn2)C1c1ccc(F)cc1 (centres undefined) | – | – | inactive
NC(=S)NNC(=S)NC(=O)c1ccco1 | > 200 | > 200 | –
NC(=O)C(NN=C1c2ccccc2-c2ccccc21)(c1ccccc1)c1ccccc1 | > 200 | 28.2 | –
O=c1[nH]c2cc(Cl)ccc2nc1/C(=N\O)C(O)c1cccc([N+](=O)[O-])c1 (centres undefined) | > 661 | 646 | –
CC(F)(C(N)=O)C(N)=O | > 200 | > 200 | –
COc1ccc(-c2cc3ccccc3[nH]c2=O)cc1OC | – | – | inactive
CS(=O)(=O)c1cnnc2ccccc12 | > 513 | > 513 | –
N#C/C(=C\c1ccc(O)c(O)c1)C(=O)NCN1CCN(C(=O)/C(C#N)=C/c2ccc(O)c(O)c2)CC1 | > 200 | 19.1 | –
Cc1ccc(N2CC(=O)N3CCCC(C)N3C(=O)C2)cc1 (centres undefined) | > 200 | 174 | –
COc1cc(OC)c(OC)cc1/C=C\c1nccc2ccccc12 | > 30.9 | 22.4 | –
